Test results taken from patent US20260209222A1, “CBL-B MODULATORS AND USES THEREOF” (Nimbus Clio, Inc., priority 2022, published 2026).

Columns and labels:
[1] = system: Recombinant human c-Cbl (aa 47-435); assay: c-Cbl Biochemical Assay (TR-FRET); details: ratio from the Cbl-b and c-Cbl TR-FRET biochemical assays
Method: c-Cbl Biochemical Assay (TR-FRET)
Recombinant human c-Cbl (aa 47-435) was expressed in E coli, purified and biotinylated in vitro. The protein was diluted to 12 nM in freshly prepared assay buffer consisting of 50 mM HEPES, pH 7.0, 100 mM NaCl, 5 mM MgCl2, 0.01% Triton-X 100, 0.01% BSA and 1 mM DTT. Recombinant human Src (aa 254-536)-GSSGSS-Zap-70 (aa 281-297) fusion protein was expressed in E coli and purified. Protein was diluted in assay buffer to 5-20 nM and ATP was added to 1 mM. Recombinant human UBE2D2(C85K) was expressed in E coli, purified and ubiquitinated and Bodipy labelled in vitro. Protein was diluted to 200 nM in assay buffer without MgCl2 (or Cisbio PPI buffer). Streptavidin-Terbium was added to 2 nM and EDTA to 10 mM, to provide a binding assay mix. Compounds were dissolved in DMSO and diluted to prepare a ten-point half log dilution series. 100 nl of each compound concentration was dispensed in duplicate in a 384 well black assay plate using acoustic dispensing. Wells for maximum signal controls received 100 nl of DMSO only and wells for minimum controls received 100 nl of a reference inhibitor compound at a final assay concentration of 100 mM to produce 100% inhibition. 5 μl of diluted c-Cbl enzyme was added to all wells of the assay plate and incubated at RT for 30 min. The enzyme assay was initiated by addition of 5 d of Src-Zap/ATP mix to all wells, and the plate incubated at RT for 60-90 min. The enzyme reaction was terminated and the binding reaction was initiated by adding 10p of binding assay mix to all wells and incubating the plate at RT for 60 min prior to assay read. Final assay conditions consisted of 6 nM c-Cbl. 2.5-10 nM Src-Zap70, 0.5 mM ATP. 1% (v/v) DMSO (enzyme reaction) and 100 nM UBE2D2(C85K)-Ub-FL-BODIPY, 5 mM EDTA, 1 nM Streptavidin-Tb (binding reaction). The HTRF assay signal was measured at 520 nm on an Envision plate reader, with reference signal at 485 or 620 nm. Data was normalized using maximum and minimum assay controls: % Inhibition=100−(100*((maximum control)−unknown)/(maximum control−minimum control)). A 4-parameter dose-response equation was used to fit the normalized dose-response data and derive an IC50 for test compounds.

[2] = molecular target: T1, Recombinant human Cbl-b (aa 36-427) (Homo sapiens, UniProt Q13191); assay: Cbl-b Biochemical Assay (TR-FRET); details: 6 nM Cbl-b, 1-2.5 nM Src-Zap70, 0.5 mM ATP; HTRF signal at 520 nm
T1 construct: Recombinant human Cbl-b (aa 36-427) was expressed in E coli; biotin (biotinylated in vitro); made in house; host or cells: E. coli
Method: Cbl-b Biochemical Assay (TR-FRET)
Recombinant human Cbl-b (aa 36-427) was expressed in E coli, purified and biotinylated in vitro. The protein was diluted to 12 nM in freshly prepared assay buffer consisting of 50 mM HEPES, pH 7.0, 100 mM NaCl, 5 mM MgCl2, 0.01% Triton-X 100, 0.01% BSA and 1 mM DTT. Recombinant human Src (aa 254-536)-GSSGSS-Zap-70 (aa 281-297) fusion protein was expressed in E coli and purified. Protein was diluted in assay buffer to 2-5 nM and supplemented with ATP to 1 mM. Fluorescein-BODIPY labeled UBED2D(C85K)-Ub was prepared by conjugating ubiquitin (Ub) labeled at its N-terminus with Fluorescein-BODIPY maleimide (ThermoFisher Catalog no B10250) to E coli expressed and purified UBED2D(C85K) [see Dou et al Nature Structural and Molecular Biology 8: 982-987, 2013]. Recombinant human UBE2D2(C85K) was expressed in E coli, purified and ubiquitinated and Bodipy labelled in vitro. Protein was diluted to 200 nM in assay buffer without MgCl2 (or Cisbio PPI buffer). Streptavidin-Terbium was added to 2 nM and EDTA to 10 mM, to provide a binding assay mix. Compounds were dissolved in DMSO and diluted to prepare a ten-point dilution series. 100 nl of each compound concentration was dispensed in duplicate in a 384 well black assay plate using acoustic dispensing. Wells for maximum signal controls received 100 nl of DMSO only and wells for minimum signal controls received 100 nl of a reference inhibitor compound at a final assay concentration of 100 mM to produce 100% inhibition. 5 μl of diluted Cbl-b enzyme was added to all wells of the assay plate and incubated at RT for 30-60 min. The enzyme assay was initiated by addition of 5 μl of Src-Zap/ATP mix to all wells, and the plate incubated at RT for 60 min. The enzyme reaction was terminated and the binding reaction was initiated by adding 10p of binding assay mix to all wells and incubating the plate at RT for 60 min prior to assay read. Final assay conditions consisted of 6 nM Cbl-b, 1-2.5 nM Src-Zap70, 0.5 mM ATP, 1% (v/v) DMSO (enzyme reaction) and 100 nM UBE2D2(C85K)-Ub-FL-BODIPY, 5 mM EDTA, 1 nM Streptavidin-Tb (binding reaction). The HTRF assay signal was measured at 520 nm on an Envision plate reader, with reference signal at 485 or 620 nm. Data was normalized using maximum and minimum assay controls: % Inhibition=100−(100*((maximum control)−unknown)/(maximum control−minimum control)). A 4-parameter dose-response equation was used to fit the normalized dose-response data and derive an IC50 for test compounds.

T1 sequence (Q13191 36-427): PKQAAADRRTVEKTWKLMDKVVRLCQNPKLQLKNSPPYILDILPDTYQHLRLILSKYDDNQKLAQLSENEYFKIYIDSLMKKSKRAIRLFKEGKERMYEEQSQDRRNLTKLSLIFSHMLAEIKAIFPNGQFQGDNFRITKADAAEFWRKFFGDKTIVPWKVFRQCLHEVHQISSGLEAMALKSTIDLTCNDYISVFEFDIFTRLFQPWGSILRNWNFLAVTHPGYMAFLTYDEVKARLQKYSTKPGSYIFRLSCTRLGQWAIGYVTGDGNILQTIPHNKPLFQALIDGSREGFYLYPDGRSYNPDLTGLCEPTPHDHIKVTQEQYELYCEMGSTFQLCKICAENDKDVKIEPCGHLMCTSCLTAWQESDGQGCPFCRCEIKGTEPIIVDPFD

Row | Compound | Cbl-b/c-Cbl Selectivity [1] | IC50 [2] [µM]
1 | C[C@H]1CCCN(Cc2cc(C(F)(F)F)c3oc(-c4cccc([C@H](c5nncn5C)C5CCC5)c4)nc3c2)C1 (single isomer, unassigned) [I-33] | 10 | < 0.2
2 | Cn1cnnc1-c1cc(F)ccc1-c1cc(NCCC#N)nc(-c2nc3cc(CN4CCC5(CC5)C4)cc(C(F)(F)F)c3o2)c1 [I-12, 3-{[6-(5-{5-azaspiro[2.4]heptan-5-ylmethyl}-7-(trifluoromethyl)-1,3-benzoxazol-2-yl)-4-[4-fluoro-2-(4-methyl-1,2,4-triazol-3-yl)phenyl]pyridin-2-yl]amino}propanenitrile] | 7 | < 0.2
3 | Cn1cnnc1[C@H](c1cccc(-c2nc3cc(CN4CCC5(CCC5)C4)cc(C(F)(F)F)c3o2)c1)[C@H]1C[C@H](C(F)(F)F)C1 [I-62] | 2 | > 5
4 | C[C@H]1CCCN(Cc2cc(C(F)(F)F)c3oc(-c4cccc(C(c5nncn5C)C5CCC5)c4)nc3c2)C1 (some centres unmarked) [I-48] | 9 | < 0.2
5 | CN(Cc1cc(C(F)(F)F)c2oc(-c3cccc([C@]4(c5nncn5C)C[C@@H](C)C4)c3)nc2c1)CC1CCC1 [I-10, 1-Cyclobutyl-N-methyl-N-((2-(3-((1s,3s)-3-methyl-1-(4-methyl-4H-1,2,4-triazol-3-yl)cyclobutyl)phenyl)-7-(trifluoromethyl)benzo[d]oxazol-5-yl)methyl)methanamine] | 10 | < 0.2
6 | C[C@H]1CCCN(Cc2cc(C(F)(F)F)c3oc(-c4cccc([C@@H](c5nncn5C)[C@H]5C[C@H](C(F)(F)F)C5)c4)nc3c2)C1 [I-58] | 4 | > 5
7 | Cn1cnnc1-c1ccc(C#N)cc1-c1cc(NCC2(CC#N)CC2)nc(-c2nc3cc(CN[C@@H]4CCC[C@@H]4O)cc(C(F)(F)F)c3o2)c1 [I-27] | 1 | < 0.2
